From paper PMC6990646 (ACS Omega, 2020)
Converted amounts (≈) assume the structure as drawn. “And” between values parts separate entries of the source, which are not always exact repeats. Equal values may be shown once.

Assays:
[1] = system: HAV HM175; experiment: Plaque reduction assay against HAV HM175; type: cell-based, hepatitis A virus HM 175; details: for IC50: hepatitis A virus HM 175, plaque reduction; for mean % of reduction, hepatitis A virus HM 175: nontoxic dose of compound
[2] = system: ED-43/SG-Feo (VYG) replicon of HCV genotype 4a; experiment: Antiviral bioassay against ED-43/SG-Feo; type: cell-based; details: for mean % of reduction, HCVcc genotype 4: nontoxic dose of compound
[3] = system: HAdV7; experiment: Plaque reduction assay against adenovirus 7; type: cell-based, human adenovirus type 7; details: nontoxic dose of compound
[4] = system: FRHK-4 cell line; experiment: Cytotoxicity test on FRHK-4 cell line; type: cell-based; details: hepatitis A virus HM 175 columns; host cells FRHK4
[5] = system: HSV-1; details: for mean % of reduction, herpes simplex virus: nontoxic dose of compound; for IC50: herpes simplex virus, plaque reduction
[6] = system: Vero cell line; experiment: Cytotoxicity test on Vero cell line; type: cell-based; details: herpes simplex virus table; host cells Vero
[7] = system: Huh 7.5 cell line; experiment: Cytotoxicity test on Huh 7.5 cell line; type: cell-based; details: HCVcc genotype 4 columns; host cells Huh 7.5
[8] = system: CBV4; experiment: Plaque reduction assay against coxsackievirus B4; type: cell-based; details: nontoxic dose of compound
[9] = system: ADV7; details: cited from earlier work

SMILES	IC50 [1]	mean % of reduction, HCVcc genotype 4 [2]	mean % of reduction, adenovirus type 7 [3]	CC50 [4]	mean % of reduction, herpes simplex virus [5]	mean % of reduction, hepatitis A virus HM 175 [1]	IC50 ([2]; HCVcc genotype 4)	CC50 [6]	CC50 [7]	IC50 [5]	mean % of reduction, coxsackievirus B4 [8]	EC50 [9]
Nc1nc(NS(=O)(=O)c2ccccc2)ncc1-c1nc2ccccc2s1 [5a, N-(4-Amino-5-(Benzo[d]thiazol-2-yl)pyrimidin-2-yl)benzenesulfonamide]	100 mg/L (≈ 261 µM)	30 ± 0.8%	20 ± 0.5%	220 mg/L (≈ 574 µM)	20 ± 0.9%	–	–	–	–	–	–	–
Cc1ccc(S(=O)(=O)Nc2ncc(-c3nc4ccccc4s3)c(N)n2)cc1 [5b, N-(4-Amino-5-(benzo[d]thiazol-2-yl)pyrimidin-2-yl)-4-methylbenzenesulfonamide]	–	20 ± 0.8%	20 ± 0.3%	–	40 ± 1.4%	40 ± 1.0%	–	–	–	–	–	–
O=C(CNc1nc(NS(=O)(=O)c2ccccc2)ncc1-c1nc2ccccc2s1)c1ccc(Cl)cc1 [9b, N-(5-(Benzo[d]thiazol-2-yl)-4-((2-(4-chlorophenyl)-2-oxoethyl)amino)pyrimidin-2-yl)benzenesulfonamide]	86 mg/L (≈ 160 µM)	60 ± 1.2%	40 ± 0.8%	230 mg/L (≈ 429 µM)	70% and 70 ± 1.5%	–	86 mg/L (≈ 160 µM)	240 mg/L (≈ 448 µM)	250 mg/L (≈ 466 µM)	74 mg/L (≈ 138 µM)	–	–
Cc1ccc(C(=O)CNc2nc(NS(=O)(=O)c3ccccc3)ncc2-c2nc3ccccc3s2)cc1 [9c, N-(5-(Benzo[d]thiazol-2-yl)-4-((2-(p-tolyl)-2-oxoethyl)amino)pyrimidin-2-yl)benzenesulfonamide]	–	10 ± 0.6%	10 ± 0.2%	–	30 ± 1.0%	40 ± 1.2%	–	–	–	–	–	–
Cc1ccc(-c2nc(N)nc(N)c2-c2nc3ccccc3s2)cc1 [13b, 5-(Benzo[d]thiazol-2-yl)-6-p-tolylpyrimidine-2,4-diamine]	–	10 ± 0.2%	10 ± 0.1%	–	10 ± 0.1%	10 ± 0.1%	–	–	–	–	10 ± 0.1%	–
COc1ccc(-c2nc(N)nc(N)c2-c2nc3ccccc3s2)cc1 [13c, 5-(Benzo[d]thiazol-2-yl)-6-(4-methoxyphenyl)pyrimidine-2,4-diamine]	–	10 ± 0.1%	10 ± 0.2%	–	10 ± 0.3%	10 ± 0.1%	–	–	–	–	10 ± 0.2%	–
Nc1nc(NS(=O)(=O)c2ccccc2)nc(-c2ccccc2)c1-c1nc2ccccc2s1 [14a, N-(4-Amino-5-(benzo[d]thiazol-2-yl)-6-phenylpyrimidin-2-yl)benzenesulfonamide]	–	10 ± 0.1%	10 ± 0.2%	–	10 ± 0.2%	10 ± 0.1%	–	–	–	–	10 ± 0.1%	–
Nc1nc(NS(=O)(=O)c2ccccc2)nc(-c2ccc(F)cc2)c1-c1nc2ccccc2s1 [14b, N-(4-Amino-5-(benzo[d]thiazol-2-yl)-6-(4-fluorophenyl)pyrimidin-2-yl)benzenesulfonamide]	–	10 ± 0.6%	30 ± 0.5%	220 mg/L (≈ 461 µM)	70 ± 1.3%	–	–	250 mg/L (≈ 524 µM)	–	66 mg/L (≈ 138 µM)	–	–
Nc1nc(NS(=O)(=O)c2ccccc2)nc(-c2ccc(Cl)cc2)c1-c1nc2ccccc2s1 [14c, N-(4-Amino-5-(benzo[d]thiazol-2-yl)-6-(4-chlorophenyl)pyrimidin-2-yl)benzenesulfonamide]	–	30 ± 0.7%	30 ± 0.6%	230 mg/L (≈ 466 µM)	30 ± 0.8%	–	–	–	–	–	–	–
Cc1ccc(-c2nc(NS(=O)(=O)c3ccccc3)nc(N)c2-c2nc3ccccc3s2)cc1 [14d, N-(4-Amino-5-(benzo[d]thiazol-2-yl)-6-p-tolylpyrimidin-2-yl)benzenesulfonamide]	–	10 ± 0.1%	10 ± 0.1%	–	10 ± 0.1%	20 ± 0.2%	–	–	–	–	30 ± 0.2%	–
COc1ccc(-c2nc(NS(=O)(=O)c3ccccc3)nc(N)c2-c2nc3ccccc3s2)cc1 [14e, N-(4-Amino-5-(benzo[d]thiazol-2-yl)-6-(4-methoxyphenyl)pyrimidin-2-yl)benzenesulfonamide]	–	10 ± 0.3%	10 ± 0.1%	–	16.7 ± 0.1%	13.3 ± 0.2%	–	–	–	–	20 ± 0.2%	–
Cc1ccc(S(=O)(=O)Nc2nc(N)c(-c3nc4ccccc4s3)c(-c3ccccc3)n2)cc1 [14f, N-(4-Amino-5-(benzo[d]thiazol-2-yl)-6-phenylpyrimidin-2-yl)-4-methylbenzenesulfonamide]	–	10 ± 0.1%	10 ± 0.2%	–	10 ± 0.1%	10 ± 0.1%	–	–	–	–	10 ± 0.2%	–
Cc1ccc(S(=O)(=O)Nc2nc(N)c(-c3nc4ccccc4s3)c(-c3ccc(F)cc3)n2)cc1 [14g, N-(4-Amino-5-(benzo[d]thiazol-2-yl)-6-(4-fluorophenyl)pyrimidin-2-yl)-4-methylbenzenesulfonamide]	81 mg/L (≈ 165 µM)	20 ± 0.7%	40 ± 0.8%	230 mg/L (≈ 468 µM)	80% and 80 ± 2.4%	–	–	240 mg/L (≈ 488 µM)	–	50 mg/L (≈ 102 µM)	–	–
Cc1ccc(S(=O)(=O)Nc2nc(N)c(-c3nc4ccccc4s3)c(-c3ccc(Cl)cc3)n2)cc1 [14h, N-(4-Amino-5-(benzo[d]thiazol-2-yl)-6-(4-chlorophenyl)pyrimidin-2-yl)-4-methylbenzenesulfonamide]	74 mg/L (≈ 146 µM)	20 ± 0.5%	40 ± 0.7%	200 mg/L (≈ 394 µM)	70% and 70 ± 2.0%	–	–	230 mg/L (≈ 453 µM)	–	71 mg/L (≈ 140 µM)	–	–
Cc1ccc(-c2nc(NS(=O)(=O)c3ccc(C)cc3)nc(N)c2-c2nc3ccccc3s2)cc1 [14i, N-(4-Amino-5-(benzo[d]thiazol-2-yl)-6-p-tolylpyrimidin-2-yl)-4-methylbenzenesulfonamide]	–	10 ± 0.2%	10 ± 0.1%	–	10 ± 0.1%	10 ± 0.2%	–	–	–	–	10 ± 0.1%	–
COc1ccc(-c2nc(NS(=O)(=O)c3ccc(C)cc3)nc(N)c2-c2nc3ccccc3s2)cc1 [14j, N-(4-Amino-5-(benzo[d]thiazol-2-yl)-6-(4-methoxyphenyl)pyrimidin-2-yl)-4-methylbenzenesulfonamide]	–	10 ± 0.3%	10 ± 0.1%	–	10 ± 0.1%	10 ± 0.1%	–	–	–	–	10 ± 0.1%	–
CSc1nc(NS(=O)(=O)c2ccccc2)nc(N)c1-c1nc2ccccc2s1 [17a, N-(4-Amino-5-(benzo[d]thiazol-2-yl)-6-(methylthio)pyrimidin-2-yl)benzenesulfonamide]	–	10 ± 0.1%	10 ± 0.2%	–	10 ± 0.3%	10 ± 0.2%	–	–	–	–	10 ± 0.1%	–
CSc1nc(NS(=O)(=O)c2ccc(C)cc2)nc(N)c1-c1nc2ccccc2s1 [17b, N-(4-Amino-5-(benzo[d]thiazol-2-yl)-6-(methylthio)pyrimidin-2-yl)-4-methylbenzenesulfonamide]	–	10 ± 0.1%	10 ± 0.1%	–	10 ± 0.2%	10 ± 0.1%	–	–	–	–	20 ± 0.2%	–
Nc1nc2c(ncn2COCCO)c(=O)[nH]1 [acyclovir, Acyclovir, reference compound]	–	–	–	–	–	–	–	28 mg/L (≈ 124 µM)	–	–	–	–
CC(=O)CNc1nc(NS(=O)(=O)c2ccccc2)ncc1-c1nc2ccccc2s1 [compound 7, N-(5-(Benzo[d]thiazol-2-yl)-4-((2-oxopropyl)amino)pyrimidin-2-yl)benzenesulfonamide]	–	10 ± 0.3%	10 ± 0.2%	–	10 ± 0.5%	10 ± 0.2%	–	–	–	–	13.3 ± 0.4%	–
NC(=O)c1ncn([C@@H]2O[C@H](CO)[C@@H](O)[C@H]2O)n1 [ribavirin]	–	–	–	–	–	–	–	–	–	–	–	27.8 mg/L (≈ 114 µM)
